The target of experiment [1] is T1, HLA-A2 molecule (Homo sapiens, UniProt P04439, D140Y/D185E/D98H/E176V/E277Q/G131W/G231S/I119V/I121R/I166T/I218V/L300P/L318F/N151K/N90K/P208A/P217A/Q86G/Q94H/R138H/R169H/T345S).
T1 construct: endogenous in cells; host or cells: T2 cell line (TAP1/TAP2-deficient)
As to the kind of experiment: T2 binding assay. Conditions: for FI0.5 lower (higher affinity) than that of the POTE 252 peptide: ratio to wild type POTE 252; for FI0.5 (peptide concentration that increases HLA-A2.1 expression by 50% over no peptide control): BB7.2 staining, flow cytometry, triplicate; for HLA-A2 binder class in words: T2 binding assay. Here is the method: Peptide binding capacity to the HLA-A2 molecule was measured by using the T2 cell line according to a protocol described previously, [22]. T2 cells (3 × 10^5 cells/well) were incubated overnight in 96-well plates with culture medium (1∶1 mixture of RPMI 1640/Eagle-Hank’s amino acid containing 2.5% fetal bovine serum, 100 U/ml penicillin, and 100 µg/ml streptomycin) with 10 µg/ml β2-microglobulin (Sigma) and different titrated concentrations of peptides (starting from 100 µM with 2-fold serial dilution) as shown in the figures to determine the concentration giving a 50% increase in binding (see below). Cells were washed once with cold HBSS containing 0.1% BSA and incubated for 30 min at 4°C with anti-HLA-A2.1 monoclonal antibody (clone BB7.2) (1∶40 dilution from hybridoma supernatant). After washing, cells were stained with FITC-labeled goat anti-mouse immunoglobulin (BD, San Jose, CA), and the level of HLA expression was measured by flow cytometry. HLA-A2 expression was quantified as fluorescence index (FI) according to the following formula: FI = (geometric mean fluorescence intensity with peptide - geometric mean fluorescence intensity without peptide)/geometric mean fluorescence intensity without peptide. Background fluorescence without BB7.2 was subtracted for each individual value. To compare the different peptides, FI0.5, the peptide concentration that increases HLA-A2.1 expression by 50% over no peptide control background, was calculated from the titration curve for each peptide. It should be noted that the FI0.5 provides a relative measure of peptide affinity or potency among peptides compared side by side, but cannot be taken as a thermodynamic affinity.
(In general: Flow cytometry measures light scatter and fluorescence of single cells or particles in a stream.)

Experiment [2] relates to AAD transgenic mice. As to the kind of experiment: Ex vivo interferon-γ ELISPOT assay after peptide immunization. The class given is in vivo, mouse. Conditions: for IFN-γ response (ELISPOT) after stimulation with the immunizing peptide: AAD mice immunized s.c. with 50 nmol peptide, boosted at 2 weeks, pooled splenocytes of 3 mice, targets pulsed with 1.0 µM (1000 nM) peptide; for cross-reactive IFN-γ response (ELISPOT) to wild type peptide: AAD mice immunized with enhanced peptide, stimulation with wild type peptide. As for the experimental part:
(§1) Cytokines were purchased from Peprotech (Rocky Hill, NJ). […] For all experiments, groups of three mice were used.
The numbers of IFN-γ secreting cells were determined by an ELISPOT kit (Mouse IFN-gamma ELISpot SixPak; R&D, Minneapolis, […]) or by a set of anti-mouse IFN-γ coating (AN18) and detecting (R4–6A2) monoclonal antibodies (Mabtech) according to the manufacturer’s instructions. Two weeks after the last immunization, spleen cells were plated on antibody-coated plates at 200,000, 100,000 and 50.000 cells/well and stimulated with 200,000 peptide-pulsed naïve spleen cells/well with indicated concentration of peptides for 2 hours. After incubation overnight at 37°C, the plates were washed and detecting antibody was added. An ELISPOT blue color module (R&D) was used for color development. The spots were read by an ELISPOT reader (AID). All samples were analyzed in triplicate.

In experiment [3] the test system is C1R.AAD cells pulsed with peptides. In words: 4-h 51Cr release CTL assay on peptide-pulsed targets after one week in vitro stimulation. Type of experiment: cell-based, human. The following applies: CTLs from immunized AAD mice after one week in vitro stimulation with cognate peptide (1.0 µM), targets pulsed with 1.0 µM peptide.
Source text: as §1

Experiment [4] has as its system HHD-2 mice. In words: HLA-A2/peptide tetramer staining and TCR Vβ repertoire of CD8+ T cells. The following applies: HHD-2 mice immunized with the peptide; for tetramer-positive CD8+ T cells: HLA-A2/peptide tetramer staining, Figure 2C. Type of experiment: in vivo, mouse.
Source text: as §1
Tetrameric MHC class I/peptide complexes obtained from the NIH Tetramer Facility were synthesized as described previously, [25]. Briefly, purified single-chain HLA-A2 molecules were synthesized by a prokaryotic expression system (pET; R&D Systems, Minneapolis, MN). The heavy chain was modified containing the Bir-A enzymatic biotinylation site. Single-chain heavy chain-β2-microglobulin and peptide were refolded by dilution into a redoxshuffling buffer system. The refolded product was biotinylated by Bir-A in the presence of […] (Avidity, Denver, CO). Streptavidin-Phycoerythrin conjugate (Jackson ImmunoResearch, West Grove, PA) was added in a 1∶4 molar ratio. Per-CP labeled anti-mouse CD8 antibody (BD Pharmingen) and TCR Vβ screening panel (BD Pharmingen) were used to detect the TCR repertoire of the CTLs.

Where [5] appears, read: wild type and substituted peptides, Figure 1B-D, T2 cells overnight with peptide and 10 µg/ml β2-microglobulin.
Where [6] appears, read: predicted wild type peptides, Figure 1A, T2 cells overnight with peptide (from 100 µM, 2-fold dilutions) and 10 µg/ml β2-microglobulin.

Consider KLMAKALLV [POTE 252-9V], for which the “FI0.5 lower (higher affinity) than that of the POTE 252 peptide” value in experiment [1] is reported as approximately 2 fold. For the same sequence, the “FI0.5 (peptide concentration that increases HLA-A2.1 expression by 50% over no peptide control)” value in experiment [1] (setting [5]) is listed as 0.8 µM. Further, in experiment [2], the “IFN-γ response (ELISPOT) after stimulation with the immunizing peptide” value (“IFN-γ response … with the immunizing peptide” below) is on record as “induced a significant number of IFN-γ spots”; the “cross-reactive IFN-γ response (ELISPOT) to wild type peptide” value (from here on “cross-reactive IFN-γ response (ELISPOT)”) is “cross-reactivity to both POTE 252 and POTE 252-9V”. For the same sequence, in experiment [3], the “CTL lysis of peptide-pulsed target cells” value is “lysed target cells pulsed with the wild type POTE 252 as well as POTE 252-9V”. In addition, the “tetramer-positive CD8+ T cells” value in experiment [4] was 6.8%. In addition, the “CD8+tetramer+ T cells positive for Vβ10” value in experiment [4] (TCR Vβ screening panel, Figure 2D) is “about 80%”.

Regarding LLLEQNADV [POTE 323-7A], the “FI0.5 (peptide concentration that increases HLA-A2.1 expression by 50% over no peptide control)” value in experiment [1] (setting [5]) is given as 2.78 µM.

For KLAAKALLL [POTE 252-3A], in experiment [1] (setting [5]), the “FI0.5 (peptide concentration that increases HLA-A2.1 expression by 50% over no peptide control)” value was found to be 16.9 µM.

Regarding KLLEEIESV [POTE 553-2L], in experiment [1] (setting [5]), the “FI0.5 (peptide concentration that increases HLA-A2.1 expression by 50% over no peptide control)” value is reported as 0.1 µM. Moreover, in experiment [2], the “IFN-γ response … with the immunizing peptide” value is given as “induced some level of IFN-γ responses only after stimulation with the same peptide” and the “cross-reactive IFN-γ response (ELISPOT)” value is reported as “no cross-reactive response to wild type peptide was detected”. Also, in experiment [3], the “CTL lysis of peptide-pulsed target cells” value is “did not lyse target cells pulsed with POTE 553-2L”.

On to KILEEIASV [POTE-553-7A], for which, in experiment [1] (setting [5]), the “FI0.5 (peptide concentration that increases HLA-A2.1 expression by 50% over no peptide control)” value is recorded as 0.2 µM.

In the case of KILEEIESV [POTE 553–561], the “HLA-A2 binder class in words” value in experiment [1] (Figure 1A) is recorded as “intermediate binders”. In addition, in experiment [1] (setting [6]), the “FI0.5 (peptide concentration that increases HLA-A2.1 expression by 50% over no peptide control)” value is given as 5.6 µM. For the same sequence, the “IFN-γ response … with the immunizing peptide” value in experiment [2] was “did not induce any significant IFN-γ responses”. In experiment [3], the “CTL lysis of peptide-pulsed target cells” value is recorded as “not any significant detectable target cell lysis”.

On to LLLEQNVDV [POTE 323–331], for which, in experiment [1] (Figure 1A), the “HLA-A2 binder class in words” value is “strongest binding affinity”. The “FI0.5 (peptide concentration that increases HLA-A2.1 expression by 50% over no peptide control)” value in experiment [1] (setting [6]) is 0.8 µM. Besides, the “IFN-γ response … with the immunizing peptide” value in experiment [2] is “only marginal IFN-γ responses”. The “IFN-γ response over background level (ELISPOT)” value in experiment [2] (AAD mice immunized with 50 nmol peptide, targets pulsed with 1000 nM peptide) is given as “less than 2 fold”. The “CTL lysis of peptide-pulsed target cells” value in experiment [3] is on record as “failed to lyse target cells pulsed with POTE 323”.

Consider LLFEQNVDV [POTE 323-3F], for which, in experiment [1] (ratio to wild type POTE 323), the “FI0.5 better than the wild type peptide” value was “approximately 3 fold”. Moreover, the “FI0.5 (peptide concentration that increases HLA-A2.1 expression by 50% over no peptide control)” value in experiment [1] (setting [5]) worked out at 0.09 µM. For the same sequence, in experiment [2], the “IFN-γ response … with the immunizing peptide” value is reported as “induced significant IFN-γ spots” and the “cross-reactive IFN-γ response (ELISPOT)” value was “some degree of IFN-γ response was also detected”. Further, the “CTL lysis of peptide-pulsed target cells” value in experiment [3] is on record as “lysed target cells pulsed with the POTE 323-3F, as well as wild type POTE 323”.

Turning to GLTPLLLGV [POTE 272–280], the “HLA-A2 binder class in words” value in experiment [1] (Figure 1A) was “strongest binding affinity”. The “FI0.5 (peptide concentration that increases HLA-A2.1 expression by 50% over no peptide control)” value in experiment [1] (setting [6]) is 0.9 µM. Moreover, the “IFN-γ response … with the immunizing peptide” value in experiment [2] is reported as “induced significant IFN-γ responses”. Moreover, the “CTL lysis of peptide-pulsed target cells” value in experiment [3] is “lysed target cells pulsed with POTE 272”.

Turning to KLMAKAALL [POTE 252-7A], the “FI0.5 (peptide concentration that increases HLA-A2.1 expression by 50% over no peptide control)” value in experiment [1] (setting [5]) is recorded as 4 µM.

As to YLLEQNVDV [POTE 323-1Y], the “FI0.5 (peptide concentration that increases HLA-A2.1 expression by 50% over no peptide control)” value in experiment [1] (setting [5]) was 0.25 µM.

Take LLAEQNVDV [POTE 323-3A]: in experiment [1] (setting [5]), the “FI0.5 (peptide concentration that increases HLA-A2.1 expression by 50% over no peptide control)” value came out at 0.4 µM.

For the sequence YLMAKALLL [POTE 252-1Y], the “FI0.5 lower (higher affinity) than that of the POTE 252 peptide” value in experiment [1] is approximately 2 fold. For the same sequence, in experiment [1] (setting [5]), the “FI0.5 (peptide concentration that increases HLA-A2.1 expression by 50% over no peptide control)” value came out at 0.9 µM. Besides, in experiment [2], the “IFN-γ response … with the immunizing peptide” value is listed as “no significant IFN-γ responses were detected”.

As to KLMAKALLL [POTE 252–260], in experiment [1] (Figure 1A), the “HLA-A2 binder class in words” value is listed as “intermediate binders”. In experiment [1] (setting [6]), the “FI0.5 (peptide concentration that increases HLA-A2.1 expression by 50% over no peptide control)” value is given as 1.6 µM. For the same sequence, the “IFN-γ response … with the immunizing peptide” value in experiment [2] is recorded as “induced a significant number of IFN-γ spots”. In experiment [3], the “CTL lysis of peptide-pulsed target cells” value was “lysed target cells pulsed with the wild type POTE 252 as well as POTE 252-9V”. Moreover, the “tetramer-positive CD8+ T cells” value in experiment [4] is 9.3%.

YILEEIESV [POTE 553-1Y]: the “FI0.5 (peptide concentration that increases HLA-A2.1 expression by 50% over no peptide control)” value in experiment [1] (setting [5]) is recorded as 0.024 µM. In experiment [2], the “IFN-γ response … with the immunizing peptide” value was “induced some level of IFN-γ responses only after stimulation with the same peptide” and the “cross-reactive IFN-γ response (ELISPOT)” value is “no cross-reactive response to wild type peptide was detected”. Further, the “CTL lysis of peptide-pulsed target cells” value in experiment [3] was “lysed target cells pulsed with not only POTE 553-1Y, but also POTE 553 and POTE 553-2L peptides”.

Values taken from article PMC3672105, “Identification and Enhancement of HLA-A2.1-Restricted CTL Epitopes in a New Human Cancer Antigen-POTE” (PLoS ONE, 2013).
